In ChEMBL document CHEMBL3393049, “Syntheses and Antituberculosis Activity of 1,3-Benzothiazinone Sulfoxide and Sulfone Derived from BTZ043” (ACS Med Chem Lett, 2015) one finds MIC and CC50 data, which are given here for six compounds.

The subject of data set [1] is Mycolicibacterium smegmatis. Kind of data set: Antimycobacterial activity against Mycobacterium smegmatis str. MC2 155 assessed as reduction in bacterial growth incubated for 18 to 20 hrs by broth microdilution method. Type of data set: functional. In general terms: Broth dilution looks for growth in wells or tubes with falling amounts of substance.
In a further data set the test system is Mycolicibacterium vaccae. The data set is described as follows: Antimycobacterial activity against Mycobacterium vaccae IMET10670 assessed as reduction in bacterial growth incubated for 18 to 20 hrs by broth microdilution method. It is filed as functional.
A further data set concerns Mycolicibacterium aurum. The data set is described as follows: Antimycobacterial activity against Mycobacterium aurum SB66 assessed as reduction in bacterial growth incubated for 18 to 20 hrs by broth microdilution method. Type of data set: functional.
The next data set relates to Staphylococcus aureus. Kind of data set: Antibacterial activity against Staphylococcus aureus SG511 assessed as reduction in bacterial growth incubated for 18 to 20 hrs by broth microdilution method. It is filed as functional.
The subject of a further data set is Micrococcus luteus. Kind of data set: Antibacterial activity against Micrococcus luteus ATCC 10240 assessed as reduction in bacterial growth incubated for 18 to 20 hrs by broth microdilution method. Type of data set: functional.
The test system of the next data set is Pseudomonas aeruginosa. The data set is described as follows: Antibacterial activity against Pseudomonas aeruginosa KW799/61 assessed as reduction in bacterial growth incubated for 18 to 20 hrs by broth microdilution method. It is filed as functional.
A further data set relates to Acinetobacter baumannii. The data set is described as follows: Antibacterial activity against Acinetobacter baumannii ATCC 17961 assessed as reduction in bacterial growth incubated for 18 to 20 hrs by broth microdilution method. It is filed as functional.
In data set [2] the test system is Mycobacterium tuberculosis. The data set is described as follows: Antimycobacterial activity against Mycobacterium tuberculosis H37Rv ATCC 27294 assessed as reduction in bacterial growth incubated for 7 days under 7H12 medium by MABA method. Type of data set: functional. The conditions noted are these: H37Rv ATCC 27294, 168 h.
The test system of data set [3] is Mycobacterium tuberculosis. Kind of data set: Antimycobacterial activity against Mycobacterium tuberculosis H37Rv ATCC 27294 assessed as reduction in bacterial growth incubated for 7 days under GAS medium by MABA method. Type of data set: functional. As to conditions: H37Rv ATCC 27294, 168 h.
In the next data set the test system is Mycobacterium marinum. Kind of data set: Antimycobacterial activity against Mycobacterium marinum ATCC 927 assessed as reduction in bacterial growth incubated for 5 days by MABA method. Type of data set: functional. The conditions noted are these: ATCC 927, 120 h. For orientation: The colour change of resazurin is a common sign of viable cells or microbes.

Another data set concerns Mycobacterium kansasii. Kind of data set: Antimycobacterial activity against Mycobacterium kansasii ATCC 12478 assessed as reduction in bacterial growth incubated for 6 days by MABA method. Type of data set: functional. The conditions noted are these: ATCC 12478, 144 h.
Data set [4] is described as follows: Cytotoxicity against human PC3 cells after 72 hrs by crystal violet biomass reduction assay. Type of data set: cell-based, PC-3.
A short description of data set [5]: Cytotoxicity against human MCF7 cells after 72 hrs by crystal violet biomass reduction assay. It is filed as cell-based.
Data set [6] in a line: Cytotoxicity against human HeLa cells after 72 hrs by crystal violet biomass reduction assay. It is filed as cell-based.

Converted amounts (≈) assume the structure as drawn.

Consider `C[C@H]1COC2(CCN(c3nc(=O)c4cc(C(F)(F)F)cc([N+](=O)[O-])c4[s+]3[O-])CC2)O1` (some centres not stated), for which the MIC in [1] was < 0.013 µM; in the data set on Mycolicibacterium vaccae it was < 0.013 µM; in the data set with Mycolicibacterium aurum, 3.13 µM (≈ 1.4 µg/mL); in the data set with Staphylococcus aureus (read-out: MIC), 12.5 µM (≈ 5.59 µg/mL); in the data set with Micrococcus luteus it was 50 µM (≈ 22.4 µg/mL); with Pseudomonas aeruginosa, > 200 µM. Moreover, the MIC in the data set on Acinetobacter baumannii was > 200 µM; in [2], 0.06 µM (≈ 0.0268 µg/mL); in data set [3], < 0.02 µM; in the data set with Mycobacterium marinum it was 0.19 µM (≈ 0.085 µg/mL); with Mycobacterium kansasii, 0.3 µM (≈ 0.134 µg/mL). Moreover, the CC50 at 72 h is 15 µM in [4], > 20 µM in data set [5] and > 20 µM in data set [6].
As for `C[C@H]1COC2(CCN(C3=NC(=O)c4cc(C(F)(F)F)cc([N+](=O)[O-])c4S3(=O)=O)CC2)O1`, the MIC was > 0.5 µM in [1]; < 0.013 µM in the data set on Mycolicibacterium vaccae; > 200 µM in the data set with Mycolicibacterium aurum; 200 µM (≈ 92.7 µg/mL) in the data set on Staphylococcus aureus; > 200 µM with Micrococcus luteus; > 200 µM with Pseudomonas aeruginosa. In addition, the MIC is > 200 µM in the data set with Acinetobacter baumannii; 0.48 µM (≈ 0.222 µg/mL) in [2]; 0.51 µM (≈ 0.236 µg/mL) in data set [3]; > 1 µM with Mycobacterium marinum; > 1 µM in the data set on Mycobacterium kansasii. Besides, the CC50 at 72 h in data set [4], in data set [5] and in data set [6] was > 20 µM in each case.
Take `CO[C@H]1/C=C/O[C@@]2(C)Oc3c(C)c(O)c4c(O)c(c(/C=N/N5CCN(C)CC5)c(O)c4c3C2=O)NC(=O)/C(C)=C\C=C\[C@H](C)[C@H](O)[C@@H](C)[C@@H](O)[C@@H](C)[C@H](OC(C)=O)[C@@H]1C` [RIFAMPIN]: the MIC in data set [2] came out at 0.05 µM (≈ 0.0411 µg/mL); in data set [3], 0.04 µM (≈ 0.0329 µg/mL); in the data set with Mycobacterium marinum it was 0.23 µM (≈ 0.189 µg/mL); with Mycobacterium kansasii, 0.1 µM (≈ 0.0823 µg/mL).
As to `O=C(O)c1cn(C2CC2)c2cc(N3CCNCC3)c(F)cc2c1=O` [CIPROFLOXACIN], the MIC in data set [1] stood at 0.32 µM (≈ 0.106 µg/mL); with Mycolicibacterium vaccae, 0.32 µM (≈ 0.106 µg/mL); with Mycolicibacterium aurum, 0.02 µM (≈ 0.00663 µg/mL); in the data set on Staphylococcus aureus (read-out: MIC), 0.32 µM (≈ 0.106 µg/mL); in the data set on Micrococcus luteus it was 1.25 µM (≈ 0.414 µg/mL); with Pseudomonas aeruginosa, 0.156 µM (≈ 0.0517 µg/mL). Further, in the data set with Acinetobacter baumannii, the MIC worked out at 0.156 µM (≈ 0.0517 µg/mL).
For the compound `C[C@H]1COC2(CCN(c3nc(=O)c4cc(C(F)(F)F)cc([N+](=O)[O-])c4s3)CC2)O1` [BTZ-043], the MIC is 0.002 µM (≈ 0.000863 µg/mL) in data set [1]; 0.002 µM (≈ 0.000863 µg/mL) with Mycolicibacterium vaccae; > 200 µM in the data set with Mycolicibacterium aurum; > 200 µM in the data set with Staphylococcus aureus; > 200 µM with Micrococcus luteus; > 200 µM in the data set with Pseudomonas aeruginosa. Also, the MIC was > 200 µM in the data set on Acinetobacter baumannii; < 0.02 µM in [2]; < 0.02 µM in [3]; 0.037 µM (≈ 0.016 µg/mL) in the data set on Mycobacterium marinum; < 0.02 µM in the data set on Mycobacterium kansasii. Besides, the CC50 at 72 h in data set [4], in [5] and in [6] was > 20 µM throughout.
Take `NNC(=O)c1ccncc1` [ISONIAZID]: the MIC in [2] was 0.1 µM (≈ 0.0137 µg/mL); in data set [3], 0.03 µM (≈ 0.00411 µg/mL); in the data set on Mycobacterium marinum, > 8 µM; in the data set with Mycobacterium kansasii, 3.86 µM (≈ 0.529 µg/mL).

Broadly, the MIC is the smallest concentration in the dilution series that meets the test's criterion for growth inhibition. Usually CC50 stands for the concentration giving 50% cytotoxicity. A high value points to lower toxicity to the cells.
